Assay results as given in patent US6753345B2, “7-hexanolytaxol and methods for preparing the same” (Hauser, Inc., priority 1998, dated 2004).

Experiments:
IGR-OV1 = assay: SRB cytotoxicity screening assay (Ovarian); details: for GI50: read-out: Log10 GI50 (converted); for Log10 TGI: IGR-OV1 (Ovarian), PG=0, 48 hour incubation
CCRF-CEM = assay: SRB cytotoxicity screening assay (Leukemia); details: for Log10 TGI: PG=0; for GI50: read-out: Log10 GI50 (converted)
MCF7/ADR-RES = assay: SRB cytotoxicity screening assay (Breast Cancer); details: for GI50 / CC50: Homo sapiens, MCF7, 48 h; for GI50: read-out: Log10 GI50 (converted); for CC50: read-out: Log10 LC50 (converted); for Log10 TGI: MCF7/ADR-RES (Breast Cancer), PG=0, 48 hour incubation
NCI-H322M [1] = details: NCI-H322M (Non-Small Cell Lung Cancer); PG=0; 48 hour incubation
786-0 = assay: SRB cytotoxicity screening assay (Renal Cancer); details: for Log10 TGI: 786-0 (Renal Cancer), PG=0, 48 hour incubation; for GI50 / CC50: Homo sapiens, 786-0, 48 h; for GI50: read-out: Log10 GI50 (converted); for CC50: read-out: Log10 LC50 (converted)
HT29 = assay: SRB cytotoxicity screening assay (Colon Cancer); details: for CC50: read-out: Log10 LC50 (converted)
KM12 = assay: SRB cytotoxicity screening assay (Colon Cancer); details: for GI50: read-out: Log10 GI50 (converted); for Log10 TGI: KM12 (Colon Cancer), PG=0, 48 hour incubation
OVCAR-5 = assay: SRB cytotoxicity screening assay (Ovarian); details: for GI50 / CC50: Homo sapiens, OVCAR-5, 48 h; for GI50: read-out: Log10 GI50 (converted); for CC50: read-out: Log10 LC50 (converted); for Log10 TGI: OVCAR-5 (Ovarian), PG=0, 48 hour incubation
HL-60(TB) [2] = assay: cells; details: Homo sapiens, HL-60, 48 h; for GI50: read-out: Log10 GI50 (converted)
PC-3 = assay: SRB cytotoxicity screening assay (Prostate Cancer); details: for GI50 / CC50: Homo sapiens, PC-3, 48 h; for GI50: read-out: Log10 GI50 (converted); for CC50: read-out: Log10 LC50 (converted); for Log10 TGI: PC-3 (Prostate Cancer), PG=0, 48 hour incubation
MOLT-4 = assay: SRB cytotoxicity screening assay (Leukemia); details: for GI50 / CC50: Homo sapiens, MOLT-4, 48 h; for GI50: read-out: Log10 GI50 (converted); for CC50: read-out: Log10 LC50 (converted); for Log10 TGI: MOLT-4 (Leukemia), PG=0, 48 hour incubation
UO-31 = assay: SRB cytotoxicity screening assay (Renal Cancer); details: for GI50 / CC50: Homo sapiens, UO-31, 48 h; for GI50: read-out: Log10 GI50 (converted); for CC50: read-out: Log10 LC50 (converted)
SNB-19 = assay: SRB cytotoxicity screening assay (CNS Cancer); details: for GI50 / CC50: Homo sapiens, SNB-19, 48 h; for GI50: read-out: Log10 GI50 (converted); for CC50: read-out: Log10 LC50 (converted); for Log10 TGI: SNB-19 (CNS Cancer), PG=0, 48 hour incubation
SN12C = assay: SRB cytotoxicity screening assay (Renal Cancer); details: for GI50 / CC50: Homo sapiens, SN12C, 48 h; for GI50: read-out: Log10 GI50 (converted); for CC50: read-out: Log10 LC50 (converted)
HOP-62 = assay: SRB cytotoxicity screening assay (Non-Small Cell Lung Cancer); details: for Log10 TGI: HOP-62 (Non-Small Cell Lung Cancer), PG=0, 48 hour incubation; for GI50 / CC50: Homo sapiens, HOP-62, 48 h; for GI50: read-out: Log10 GI50 (converted); for CC50: read-out: Log10 LC50 (converted)
NCI-H322M [3] = assay: cells; details: Homo sapiens, 48 h; for GI50: read-out: Log10 GI50 (converted)
LOX-IMVI = LOX-IMVI (Melanoma); PG=0; 48 hour incubation
UACC-62 = assay: SRB cytotoxicity screening assay (Melanoma); details: for GI50: read-out: Log10 GI50 (converted); for Log10 TGI: UACC-62 (Melanoma), PG=0, 48 hour incubation
SK-MEL-2 = assay: SRB cytotoxicity screening assay (Melanoma); details: for GI50: read-out: Log10 GI50 (converted)
M14 = assay: SRB cytotoxicity screening assay (Melanoma); details: for GI50: read-out: Log10 GI50 (converted); for Log10 TGI: M14 (Melanoma), PG=0, 48 hour incubation
NCI-H460 = assay: SRB cytotoxicity screening assay (Non-Small Cell Lung Cancer); details: for Log10 TGI: NCI-H460 (Non-Small Cell Lung Cancer), PG=0, 48 hour incubation
HCC-2998 = assay: SRB cytotoxicity screening assay (Colon Cancer); details: for Log10 TGI: HCC-2998 (Colon Cancer), PG=0, 48 hour incubation
MCF7 = assay: SRB cytotoxicity screening assay (Breast Cancer); details: for GI50 / CC50: Homo sapiens, MCF7, 48 h; for GI50: read-out: Log10 GI50 (converted); for CC50: read-out: Log10 LC50 (converted)
HL-60(TB) [4] = details: HL-60(TB) (Leukemia); PG=0; 48 hour incubation
ACHN = assay: SRB cytotoxicity screening assay (Renal Cancer)
[5] = CCRF-CEM (Leukemia), 48 hour incubation
[6] = read-out: Log10 LC50 (converted)

CC(=O)O[C@H]1C(=O)[C@@]2(C)[C@H]([C@H](OC(=O)c3ccccc3)[C@]3(O)C[C@H](OC(=O)[C@H](O)[C@@H](NC(=O)c4ccccc4)c4ccccc4)C(C)=C1C3(C)C)[C@]1(OC(C)=O)CO[C@@H]1C[C@@H]2O [Paclitaxel, paclitaxel, reference compound]
GI50 (IGR-OV1; Homo sapiens, IGROV-1, 48 h): 2.45 nM
Log10 TGI (IGR-OV1): −4.19 molar
Log10 TGI (CCRF-CEM; [5]): >−4.00 molar
Log10 TGI (CCRF-CEM; CCRF-CEM (Leukemia), 48 hour incubation, listed as paclitaxel): greater than −4.00 molar
GI50 (CCRF-CEM; Homo sapiens, CCRF-CEM, 48 h): 0.00245 nM
GI50 (MCF7/ADR-RES): 3.31 nM
CC50 (MCF7/ADR-RES): > 100000 nM
Log10 TGI (MCF7/ADR-RES): >−4.00 molar
Log10 TGI (NCI-H322M [1]): −4.46 molar
Log10 TGI (786-0): >−4.00 molar
GI50 (786-0): 9.77 nM
CC50 (786-0): > 100000 nM
CC50 (HT29; Homo sapiens, HT-29, 48 h): 33100 nM
GI50 (KM12; Homo sapiens, KM12, 48 h): 0.00372 nM
Log10 TGI (KM12): −4.36 molar
GI50 (OVCAR-5): 0.417 nM
CC50 (OVCAR-5): > 100000 nM
Log10 TGI (OVCAR-5): −4.92 molar
GI50 (HL-60(TB) [2]): 0.00269 nM
GI50 (PC-3): 0.0141 nM
CC50 (PC-3): > 100000 nM
Log10 TGI (PC-3): >−4.00 molar
GI50 (MOLT-4): 0.00851 nM
CC50 (MOLT-4): > 100000 nM
Log10 TGI (MOLT-4): >−4.00 molar
GI50 (UO-31): 813 nM
CC50 (UO-31): > 100000 nM
GI50 (SNB-19): 1.05 nM
CC50 (SNB-19): > 100000 nM
Log10 TGI (SNB-19): >−4.00 molar
GI50 (SN12C): 0.295 nM
CC50 (SN12C): > 100000 nM
Log10 TGI (HOP-62): −4.80 molar
GI50 (HOP-62): 0.214 nM
CC50 (HOP-62): 89100 nM
GI50 (NCI-H322M [3]): 0.0759 nM
CC50 (NCI-H322M [3]; [6]): > 100000 nM
Log10 TGI (LOX-IMVI): −4.65 molar
GI50 (UACC-62; Homo sapiens, UACC-62, 48 h): 0.0347 nM
Log10 TGI (UACC-62): −4.71 molar
GI50 (SK-MEL-2; Homo sapiens, SK-MEL-2, 48 h): 0.295 nM
GI50 (M14; Homo sapiens, M14, 48 h): 0.00186 nM
Log10 TGI (M14): −4.62 molar
Log10 TGI (NCI-H460): −4.92 molar
Log10 TGI (HCC-2998): −4.77 molar
GI50 (MCF7): 0.00204 nM
CC50 (MCF7): > 100000 nM
Log10 TGI (HL-60(TB) [4]): >−4.53 molar

CCCCCC(=O)O[C@H]1C[C@H]2OC[C@@]2(OC(C)=O)[C@H]2[C@H](OC(=O)c3ccccc3)[C@]3(O)C[C@H](OC(=O)[C@H](O)[C@@H](NC(=O)c4ccccc4)c4ccccc4)C(C)=C([C@@H](OC(C)=O)C(=O)[C@]12C)C3(C)C [7-hexanoyltaxol]
GI50 (IGR-OV1; Homo sapiens, IGROV-1, 48 h): < 10 nM
CC50 (IGR-OV1; Homo sapiens, IGROV-1, 48 h, read-out: Log10 LC50 (converted)): > 100000 nM
Log10 TGI (IGR-OV1): −4.52 molar
Log10 TGI (CCRF-CEM; [5]): −6.1 molar
Log10 TGI (CCRF-CEM; CCRF-CEM (Leukemia), 48 hour incubation, listed as 7-Hexanoyltaxol): <−8.00 molar
Log10 LC50 (CCRF-CEM; CCRF-CEM (Leukemia), PG=−50, 48 hour incubation): >−4.00 molar
GI50 (CCRF-CEM; Homo sapiens, CCRF-CEM, 48 h): < 10 nM
CC50 (CCRF-CEM; Homo sapiens, CCRF-CEM, 48 h, read-out: Log10 LC50 (converted)): > 100000 nM
IC50 (CCRF-CEM; Homo sapiens, CCRF-CEM, read-out: concentration necessary to achieve primary growth inhibition (percentage growth +50)): ~100 nM
GI50 (MCF7/ADR-RES): 1120 nM
CC50 (MCF7/ADR-RES): > 100000 nM
Log10 TGI (MCF7/ADR-RES): −4.80 molar
Log10 TGI (NCI-H322M [1]): −4.51 molar
Log10 TGI (786-0): −4.88 molar
GI50 (786-0): < 10 nM
CC50 (786-0): 36300 nM
Log10 TGI (HT29; HT29 (Colon Cancer), PG=0, 48 hour incubation): −4.95 molar
GI50 (HT29; Homo sapiens, HT-29, 48 h, read-out: Log10 GI50 (converted)): < 10 nM
CC50 (HT29; Homo sapiens, HT-29, 48 h): 33100 nM
GI50 (KM12; Homo sapiens, KM12, 48 h): < 10 nM
CC50 (KM12; Homo sapiens, KM12, 48 h, read-out: Log10 LC50 (converted)): > 100000 nM
Log10 TGI (KM12): −4.90 molar
GI50 (OVCAR-5): < 10 nM
CC50 (OVCAR-5): 33900 nM
Log10 TGI (OVCAR-5): −5.47 molar
GI50 (HL-60(TB) [2]): < 10 nM
CC50 (HL-60(TB) [2]; [6]): > 100000 nM
GI50 (PC-3): < 10 nM
CC50 (PC-3): > 100000 nM
Log10 TGI (PC-3): −5.48 molar
GI50 (MOLT-4): < 10 nM
CC50 (MOLT-4): > 100000 nM
Log10 TGI (MOLT-4): −4.69 molar
GI50 (UO-31): 64.6 nM
CC50 (UO-31): > 100000 nM
Log10 TGI (UO-31; UO-31 (Renal Cancer), PG=0, 48 hour incubation): >−4.00 molar
GI50 (SNB-19): 10.2 nM
CC50 (SNB-19): > 100000 nM
Log10 TGI (SNB-19): −4.53 molar
GI50 (SN12C): < 10 nM
CC50 (SN12C): > 100000 nM
Log10 TGI (SN12C; SN12C (Renal Cancer), PG=0, 48 hour incubation): >−4.00 molar
Log10 TGI (HOP-62): −6.52 molar
GI50 (HOP-62): 14.1 nM
CC50 (HOP-62): 89100 nM
GI50 (NCI-H322M [3]): 20 nM
Log10 TGI (LOX-IMVI): −4.68 molar
GI50 (UACC-62; Homo sapiens, UACC-62, 48 h): < 10 nM
CC50 (UACC-62; Homo sapiens, UACC-62, 48 h, read-out: Log10 LC50 (converted)): > 100000 nM
Log10 TGI (UACC-62): −4.78 molar
Log10 TGI (ACHN; ACHN (Renal Cancer), PG=0, 48 hour incubation): >−4.00 molar
GI50 (ACHN; Homo sapiens, ACHN, 48 h, read-out: Log10 GI50 (converted)): 95.5 nM
CC50 (ACHN; Homo sapiens, ACHN, 48 h, read-out: Log10 LC50 (converted)): > 100000 nM
GI50 (SK-MEL-2; Homo sapiens, SK-MEL-2, 48 h): 93.3 nM
CC50 (SK-MEL-2; Homo sapiens, SK-MEL-2, 48 h, read-out: Log10 LC50 (converted)): > 100000 nM
Log10 TGI (SK-MEL-2; SK-MEL-2 (Melanoma), PG=0, 48 hour incubation): −4.56 molar
GI50 (M14; Homo sapiens, M14, 48 h): < 10 nM
CC50 (M14; Homo sapiens, M14, 48 h, read-out: Log10 LC50 (converted)): 1580 nM
Log10 TGI (M14): −7.94 molar
GI50 (NCI-H460; Homo sapiens, NCI-H460, 48 h, read-out: Log10 GI50 (converted)): < 10 nM
CC50 (NCI-H460; Homo sapiens, NCI-H460, 48 h, read-out: Log10 LC50 (converted)): > 100000 nM
Log10 TGI (NCI-H460): −4.75 molar
Log10 TGI (HCC-2998): −7.35 molar
GI50 (HCC-2998; Homo sapiens, HCC 2998, 48 h, read-out: Log10 GI50 (converted)): < 10 nM
CC50 (HCC-2998; Homo sapiens, HCC 2998, 48 h, read-out: Log10 LC50 (converted)): 8320 nM
GI50 (MCF7): < 10 nM
CC50 (MCF7): > 100000 nM
Log10 TGI (MCF7; MCF7 (Breast Cancer), PG=0, 48 hour incubation): −4.73 molar
Log10 TGI (HL-60(TB) [4]): <−8.00 molar
